Measured values taken from US10159640B2, “Prebiotic oral care compositions containing amino acids” (COLGATE-PALMOLIVE COMPANY, priority 2013, dated 2018).

Experiments:
Experiment in all cases: Extent of growth, growth curves in BHI
Format in all cases: cell-based
Conditions in all cases: control = 1
[1] = test system: Tannerella forsythia
Procedure: (§1) The extent of growth of the tested bacteria in response to selected compounds (Met-Pro, Phe-Glu) was investigated by setting up growth curves in a nutritionally rich medium (brain heart infusion broth (BHI), Oxoid), over 48 hours. Late exponential growth phase liquid cultures were prepared by transferring the respective bacterium from blood agar plates to BHI and overnight incubation at 37° C. in an anaerobic atmosphere for A. viscosus, V. parvula, F. nucleatum, P. gingivalis, P. intermedia, T. forsythia, A. naeslundii, and C. sputigena, and in a 5% CO2 environment for S. salivarius, S. sanguinis, S. mitis, A. actinomycetemcomitans, S. mutans, S. sobrinus and S. gordonii. Overnight cultures were transferred to BHI and adjusted to a concentration of 1×10^7 CFU/ml (colony forming units per ml) by measuring the optical density at 600 nm (OD600) (BioRad SmartSpec 3000). For each strain, 200 μl of the bacterial suspension was added to a 96-well plate containing 20 μl of the respective di-peptides. Final concentrations of the di-peptides were set to 5, 10, 20 and 25 μmol/ml. […] Plates were incubated as previously described.
(§2) For each combination of bacterium/dipeptide, and for each of their respective controls (i.e. the particular bacterium in the nutritionally rich medium with no dipeptide), the optical density was measured at 630 nm (OD630) at 0 h, 24 h and 48 h (Thermo Scientific Multiskan Ascent). Additionally, the OD630 for combinations of bacterium/dipeptide grown in a 5% CO2 environment were also measured every hour between 0 h and 9 h.
(§3) The experiment was carried out on three different days (thus providing 3 biological replicas) and on each day the experiment was carried out in quadruple (thus providing 4 technical replicas) for each combination of bacterium with dipeptide and for each control. For each day and for each combination, the average (mean) of the values obtained (as detailed above) for the four technical replicas was calculated to provide a single value for each combination on each day. The values shown in Tables 5 to 6, below, are the average (mean) of the three single values obtained for each combination of bacterium with dipeptide.

[2] = test system: Streptococcus mitis
Procedure: as §1, §2, §3

[3] = test system: Prevotella intermedia
Procedure: as §1, §2, §3

[4] = test system: Streptococcus salivarius
Procedure: as §1, §2, §3

[5] = test system: Veillonella parvula
Procedure: as §1, §2, §3

[6] = test system: Aggregatibacter actinomycetemcomitans
Procedure: as §1, §2, §3

[7] = test system: Fusobacterium nucleatum
Procedure: as §1, §2, §3

[8] = test system: Streptococcus sanguinis
Procedure: as §1, §2, §3

[9] = test system: Streptococcus mutans
Procedure: as §1, §2, §3

[10] = test system: Streptococcus sobrinus
Procedure: as §1, §2, §3

Row | Substance | extent of growth: maximal OD630 over 48 hr divided by maximal OD of control ([1]; 5 μmol/ml) | extent of growth: maximal OD630 over 48 hr divided by maximal OD of control ([1]; 10 μmol/ml) | extent of growth: maximal OD630 over 48 hr divided by maximal OD of control ([1]; 20 μmol/ml) | extent of growth: maximal OD630 over 48 hr divided by maximal OD of control ([1]; 25 μmol/ml) | extent of growth: maximal OD630 over 48 hr divided by maximal OD of control ([2]; 5 μmol/ml) | extent of growth: maximal OD630 over 48 hr divided by maximal OD of control ([2]; 10 μmol/ml) | extent of growth: maximal OD630 over 48 hr divided by maximal OD of control ([2]; 20 μmol/ml) | extent of growth: maximal OD630 over 48 hr divided by maximal OD of control ([2]; 25 μmol/ml) | extent of growth: maximal OD630 over 48 hr divided by maximal OD of control ([3]; 5 μmol/ml) | extent of growth: maximal OD630 over 48 hr divided by maximal OD of control ([3]; 10 μmol/ml) | extent of growth: maximal OD630 over 48 hr divided by maximal OD of control ([3]; 20 μmol/ml) | extent of growth: maximal OD630 over 48 hr divided by maximal OD of control ([3]; 25 μmol/ml) | extent of growth: maximal OD630 over 48 hr divided by maximal OD of control ([4]; 5 μmol/ml) | extent of growth: maximal OD630 over 48 hr divided by maximal OD of control ([4]; 10 μmol/ml) | extent of growth: maximal OD630 over 48 hr divided by maximal OD of control ([4]; 20 μmol/ml) | extent of growth: maximal OD630 over 48 hr divided by maximal OD of control ([4]; 25 μmol/ml) | extent of growth: maximal OD630 over 48 hr divided by maximal OD of control ([5]; 5 μmol/ml) | extent of growth: maximal OD630 over 48 hr divided by maximal OD of control ([5]; 10 μmol/ml) | extent of growth: maximal OD630 over 48 hr divided by maximal OD of control ([5]; 20 μmol/ml) | extent of growth: maximal OD630 over 48 hr divided by maximal OD of control ([5]; 25 μmol/ml) | further results
1 | Phe-Glu | 1.0118 | 0.7490 | 0.7707 | 0.8302 | 1.9957 | 2.0642 | 0.3250 | 0.4367 | 1.1149 | 0.2856 | 0.2094 | 0.2224 | 0.9916 | 0.8123 | 0.2953 | 0.2322 | 1.0286 | 1.0199 | 0.9533 | 1.0475 | extent of growth: maximal OD630 over 48 hr divided by maximal OD of control ([6]; 5 μmol/ml): 0.5643; extent of growth: maximal OD630 over 48 hr divided by maximal OD of control ([6]; 10 μmol/ml): 0.3227; extent of growth: maximal OD630 over 48 hr divided by maximal OD of control ([6]; 20 μmol/ml): 0.2201; extent of growth: maximal OD630 over 48 hr divided by maximal OD of control ([6]; 25 μmol/ml): 0.2320; extent of growth: maximal OD630 over 48 hr divided by maximal OD of control ([7]; 5 μmol/ml): 0.7990; extent of growth: maximal OD630 over 48 hr divided by maximal OD of control ([7]; 10 μmol/ml): 0.8493; extent of growth: maximal OD630 over 48 hr divided by maximal OD of control ([7]; 20 μmol/ml): 0.2311; extent of growth: maximal OD630 over 48 hr divided by maximal OD of control ([7]; 25 μmol/ml): 0.2402; extent of growth: maximal OD630 over 48 hr divided by maximal OD of control ([8]; 5 μmol/ml): 0.8140; extent of growth: maximal OD630 over 48 hr divided by maximal OD of control ([8]; 10 μmol/ml): 0.5644; extent of growth: maximal OD630 over 48 hr divided by maximal OD of control ([8]; 20 μmol/ml): 0.2451; extent of growth: maximal OD630 over 48 hr divided by maximal OD of control ([8]; 25 μmol/ml): 0.2334; extent of growth: maximal OD630 over 48 hr divided by maximal OD of control ([9]; 5 μmol/ml): 0.9703; extent of growth: maximal OD630 over 48 hr divided by maximal OD of control ([9]; 10 μmol/ml): 0.9003; extent of growth: maximal OD630 over 48 hr divided by maximal OD of control ([9]; 20 μmol/ml): 0.4212; extent of growth: maximal OD630 over 48 hr divided by maximal OD of control ([9]; 25 μmol/ml): 0.2492; extent of growth: maximal OD630 over 48 hr divided by maximal OD of control ([10]; 5 μmol/ml): 1.0790; extent of growth: maximal OD630 over 48 hr divided by maximal OD of control ([10]; 10 μmol/ml): 0.9900; extent of growth: maximal OD630 over 48 hr divided by maximal OD of control ([10]; 20 μmol/ml): 0.5832; extent of growth: maximal OD630 over 48 hr divided by maximal OD of control ([10]; 25 μmol/ml): 0.4315
2 | Met-Pro | 0.9244 | 0.9743 | 0.7533 | 0.7018 | 0.9134 | 1.2332 | 1.8922 | 1.7501 | 0.9177 | 0.9742 | 0.3193 | 0.2336 | 0.9729 | 1.0153 | 0.7572 | 0.5262 | 0.9980 | 0.9808 | 0.9516 | 0.9671 | extent of growth: maximal OD630 over 48 hr divided by maximal OD of control ([6]; 5 μmol/ml): 0.7454; extent of growth: maximal OD630 over 48 hr divided by maximal OD of control ([6]; 10 μmol/ml): 0.6321; extent of growth: maximal OD630 over 48 hr divided by maximal OD of control ([6]; 20 μmol/ml): 0.3282; extent of growth: maximal OD630 over 48 hr divided by maximal OD of control ([6]; 25 μmol/ml): 0.2297; extent of growth: maximal OD630 over 48 hr divided by maximal OD of control ([7]; 5 μmol/ml): 0.8422; extent of growth: maximal OD630 over 48 hr divided by maximal OD of control ([7]; 10 μmol/ml): 0.8667; extent of growth: maximal OD630 over 48 hr divided by maximal OD of control ([7]; 20 μmol/ml): 0.7782; extent of growth: maximal OD630 over 48 hr divided by maximal OD of control ([7]; 25 μmol/ml): 0.7273; extent of growth: maximal OD630 over 48 hr divided by maximal OD of control ([8]; 5 μmol/ml): 0.9059; extent of growth: maximal OD630 over 48 hr divided by maximal OD of control ([8]; 10 μmol/ml): 0.9070; extent of growth: maximal OD630 over 48 hr divided by maximal OD of control ([8]; 20 μmol/ml): 0.6852; extent of growth: maximal OD630 over 48 hr divided by maximal OD of control ([8]; 25 μmol/ml): 0.5011; extent of growth: maximal OD630 over 48 hr divided by maximal OD of control ([9]; 5 μmol/ml): 0.9473; extent of growth: maximal OD630 over 48 hr divided by maximal OD of control ([9]; 10 μmol/ml): 0.9083; extent of growth: maximal OD630 over 48 hr divided by maximal OD of control ([9]; 20 μmol/ml): 0.7929; extent of growth: maximal OD630 over 48 hr divided by maximal OD of control ([9]; 25 μmol/ml): 0.5618; extent of growth: maximal OD630 over 48 hr divided by maximal OD of control ([10]; 5 μmol/ml): 0.9294; extent of growth: maximal OD630 over 48 hr divided by maximal OD of control ([10]; 10 μmol/ml): 1.0301; extent of growth: maximal OD630 over 48 hr divided by maximal OD of control ([10]; 20 μmol/ml): 1.0167; extent of growth: maximal OD630 over 48 hr divided by maximal OD of control ([10]; 25 μmol/ml): 0.8547
